# Measured values taken from patent publication US12115209B2, “ROMO1-derived antimicrobial peptides including lysine substitution and variants thereof” (KOREA UNIVERSITY RESEARCH AND BUSINESS FOUNDATION, priority 2019, dated 2024).
# No end group written: not given here.
# Tests used:
# Format in all cases: cell-based
# mouse red blood cells = system: mouse red blood cells
# Method: Red blood cells were diluted with PBS, centrifuged 3 times at 900 g for 10 minutes, and washed. 100 μl of the diluted red blood cell solution (10% v/v PBS) was dispensed into each well of a 96-well microplate, and KU-5878, KU-5878-K4, KU-5878-K4-D, melittin, magainin 2 or daptomycin was added to each well which was then filled with PBS to 200 μl, followed by reaction by incubation at 37° C. for 1 hour. Then, the supernatant of the reaction solution was separated, and the absorbance at a wavelength of 550 nm was measured using a spectrophotometer. As control, PBS and 0.1% Triton X-100 (Triton X-100) solution were used.
# Based on the results of measurement of the absorbance, the degree of red blood cell destruction was calculated according to Equation 1 below, and the results of the calculation are shown in FIG. 6. % The intact RBC=100(%)−[(absorbance of peptide-treated red blood cell solution−absorbance of PBS-treated red blood cell solution)/(absorbance of Triton X-100-treated red blood cell solution−absorbance of PBS-treated red blood cell solution)×100(%)] [Equation 1]
# [1] = system: Escherichia coli (ATCC 25922); conditions: ATCC 25922, 4 h
# Method: (§1) Specifically, each type of bacteria was cultured in 3% (w/v) TSB (tryptic soy broth) liquid medium at 37° C. and 200 rpm for 4 hours, and then further cultured under the same conditions for 3 hours to a concentration of 5×10^6 CFU/ml. Strain solutions were prepared by diluting each of the further cultured strains with SP buffer to a final concentration of 2×10^5 CFU/ml.
# (§2) Then, the KU-5878 peptide at varying concentrations (0 μg/ml to 300 μg/ml) was dispensed into each well of a 96-well microplate, and 100 μl (1×10^5 CFU/ml) of each of the prepared strain solutions was added thereto, mixed therewith, and allowed to react with the peptide in an incubator at 37° C. for 1 hour.
# (§3) In addition, 10 μl of each reaction solution of the peptide and the strain was plated on the TS agar plate at a constant size, and incubated in an incubator at 37° C. for 18 hours, and then colony formation on the plate was checked. The minimum bactericidal concentration was defined as the minimum concentration of the peptide at which no colony was formed, and the experimental results are shown in Table 2 below.
# [2] = system: Acinetobacter baumannii (ATCC 19606); conditions: ATCC 19606, 4 h
# Method: as §1, §2, §3
# [3] = system: Enterococcus faecium (ATCC 19434); conditions: ATCC 19434, 4 h
# Method: as §1, §2, §3
# [4] = system: Enterobacter aerogenes (ATCC 13048); conditions: ATCC 13048, 4 h
# Method: as §1, §2, §3
# [5] = system: Enterococcus faecalis (ATCC 19433); conditions: ATCC 19433, 4 h
# Method: as §1, §2, §3
# [6] = system: Klebsiella pneumoniae (ATCC 13883); conditions: ATCC 13883, 4 h
# Method: as §1, §2, §3
# [7] = system: Streptomyces sindenensis (ATCC 12392); conditions: ATCC 12392, 4 h
# Method: as §1, §2, §3
# [8] = system: Bacillus subtilis (ATCC 6633); conditions: ATCC 6633, 4 h
# Method: as §1, §2, §3
sequence,measurement,setting,value
KKMMKKGGKFGTFMAIGMGIR [KU-5878-K4],hemolysis of red blood cells,mouse red blood cells,little hemolysis
same,MBC value,[1],5 µg/mL
same,MBC value,[2],4 µg/mL
same,MBC value,[3],5 µg/mL
same,MBC value,[4],5 µg/mL
same,MBC value,[5],5 µg/mL
same,MBC value,[6],5 µg/mL
same,MBC value,[7],5 µg/mL
same,MBC value,[8],5 µg/mL
